Assay results published in BindingDB's records for doi:10.1021/jm0603926 (Taigen Biotechnology, 2006).

Molecular target: Replicase polyprotein 1ab (Severe acute respiratory syndrome coronavirus, UniProt P0C6X7)
Experiment: 3CL Protease Enzyme Assays
Details: pH 7.5; 25 °C
Description: The effects of compound on enzyme activity were measured by using peptide cleavage assay. Cleavage products were resolved and analyzed with a reverse-phase HPLC. Quantification of peak areas was used to determine the extent of substrate conversion. Ki was calculated using the equation of Cheng and Prusoff.

C[C@H](OC(C)(C)C)[C@H](NC(=O)OCc1ccccc1)C(=O)N[C@@H](CC1CCCCC1)C(=O)N[C@H](C=O)C[C@@H]1CCNC1=O [benzyl N-[(1S,2S)-2-(tert-butoxy)-1-{[(1S)-2-cyclohexyl-1-{[(2S)-1-oxo-3-[(3S)-2-oxopyrrolidin-3-yl]propan-2-yl]carbamoyl}ethyl]carbamoyl}propyl]carbamate]
Ki: 53 nM

CCOC(=O)/C=C/[C@H](C[C@@H]1CCNC1=O)NC(=O)[C@H](Cc1ccc(F)cc1)NC(=O)[C@@H](NC(=O)c1cc(C)on1)C(C)C [AG7088 analogue 2a]
Ki: > 10000 nM
